We go through 1 substance from patent US20220016049A1, “TISSUE REPAIR” (Regenall Limited, priority 2019, published 2022).

Data set [1] deals with Tendon injury. Kind of data set: Tendon injury in a horse, recovery following treatment with vitamin A (case report). Format: in vivo. Particulars: retinyl palmitate oral 750,000 IU twice daily, at least 4 weeks. From the text:
Tendon Injury—Recovery Following Treatment with Vitamin A [table] [table] Treatment with Vitamin A was initiated approximately 20 days after the initial injury. Retinyl palmitate (93.8% Retinol Equivalent) Oral 750,000 IU […] Continuing (at least 4 weeks) Functional recovery has been good considering the severity of the lesion. […] It is not uncommon for such lesions to take between 12 to 18 months to heal.

The subject of data set [2] is Spinal cord injury. Put plainly: Patient-reported outcome measure, spinal cord injury, recovery following treatment with vitamin A. The class given is in vivo, human. The text has this: Patient-Reported Outcome Measure
Spinal Cord Injury—Recovery Following Treatment with Vitamin A
Vitamin A 50,000 IU (from Retinyl palmitate and fish liver oil)
Starting in October 2018. For three months taking vitamin A 10,000×3. Increasing in end January 2019 10,000×5.
Vitamin A (from cod liver oil and vitamin A palmitate)
For 3 months 3 tablets a day and for 3 months 5 tablets a day
21 years later in February 2019
I take 50,000 IU in one administration in the morning daily
Continuing: Almost 2 months

The conditions of data set [3]: horse; cited from earlier work.

On to Vitamin A, for which the Functional recovery entry in data set [1] (Horse subject 1 (polo pony, 14 years), started approximately 20 days after injury) was “good”. For the same substance, the “Size of the lesion (ultrasonography)” value in data set [1] (Horse subject 1) is “good reduction in the size of the lesion”. In addition, in data set [2] (Human Subject 1, injury 1963 (T4), oral 50,000 IU once daily, 3 months, started 56 years after injury), the “Pain reduction (right lower back)” value is reported as 10-15%. In addition, the Duration of pain entry in data set [2] (Human Subject 1, oral 50,000 IU once daily, 3 months) was “much less”. Besides, the “First recovery found (walking control, balance)” value in data set [2] (Human Subject 2, spinal stenosis, both legs paralyzed, oral 30,000 IU per day for 3 months from October 2018) is “more walking control and balance”. Moreover, the “Strength, balance and movement control” value in data set [2] (Human Subject 2, March 2019, oral 50,000 IU per day from end of January 2019) is given as “much stronger, more balanced, more movement control”. Further, the “Walking without any support on even level” value in data set [2] (Human Subject 2, beginning of April 2019, oral 50,000 IU per day) is 30-50 meters. Further, the “Improvement of pain level” value in data set [2] (Human Subject 3, disc/nerve pain around knee, oral 50,000 IU daily, 4-5 months) is 80%. In data set [2] (Human Subject 4, injury at C4/C5 in 1998, oral 50,000 IU daily, almost 2 months, started 21 years after injury), the Neck flexibility entry is recorded as “much more flexible”. Also, the Neck aching result in data set [2] (Human Subject 4, oral 50,000 IU daily, almost 2 months) is “largely disappeared”. In data set [3], the “Vitamin A toxicity level” value was “around 1,000 IU/kg body weight (BW)/day”.
